Measured values as given in the supplement of paper PMC11061612.

What was measured:
Test in all cases: Bliss excess, mean over the matrix (fraction); higher = more synergy
[1] = test system: KYSE-410 (Esophageal Squamous Cell Carcinoma)
Method in brief: (§1)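 Bliss excess equals the observed combination effect minus the expected value EA + EB − EA·EB, where EA and EB are the effects of each agent alone. Combination Emax is the second-highest inhibition within the matrix. Inhibition was scaled from CellTiter-Glo 2.0 luminescence, with 0 set by vehicle wells and 1 by blank wells, after 72 hours of two-drug dosing of cells plated in 1536-well plates.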

[2] = test system: CAL-54 (Kidney Carcinoma)
Method in brief: as §1

[3] = test system: Hs-633T (Other Solid Carcinomas)
Method in brief: as §1

[4] = test system: LU-139 (Small Cell Lung Carcinoma)
Method in brief: as §1

[5] = test system: SW626 (Colorectal Carcinoma)
Method in brief: as §1

[6] = test system: SK-OV-3 (Ovarian Carcinoma)
Method in brief: as §1

NCI-H2795 (Mesothelioma) = test system: NCI-H2795 (Mesothelioma)
Method in brief: as §1

[7] = test system: SW1116 (Colorectal Carcinoma)
Method in brief: as §1

[8] = test system: OC-314 (Ovarian Carcinoma)
Method in brief: as §1

[9] = test system: MHH-PREB-1 (B-Cell Non-Hodgkin's Lymphoma)
Method in brief: as §1

[10] = test system: SUP-T1 (T-Lymphoblastic Leukemia)
Method in brief: as §1

HMV-II (Melanoma) = test system: HMV-II (Melanoma)
Method in brief: as §1

[11] = test system: HDLM-2 (Hodgkin's Lymphoma)
Method in brief: as §1

[12] = test system: SW1271 (Small Cell Lung Carcinoma)
Method in brief: as §1

[13] = test system: PCI-30 (Head and Neck Carcinoma)
Method in brief: as §1

[14] = test system: HCC-15 (Squamous Cell Lung Carcinoma)
Method in brief: as §1

NCI-H28 (Mesothelioma) = test system: NCI-H28 (Mesothelioma)
Method in brief: as §1

[15] = test system: UMC-11 (Other Solid Carcinomas)
Method in brief: as §1

[16] = test system: TE-4 (Esophageal Squamous Cell Carcinoma)
Method in brief: as §1

[17] = test system: CAL-51 (Breast Carcinoma)
Method in brief: as §1

SMILES	Bliss excess [1]	Bliss excess [2]	Bliss excess [3]	Bliss excess [4]	Bliss excess [5]	Bliss excess [6]	Bliss excess (NCI-H2795 (Mesothelioma))	Bliss excess [7]	Bliss excess [8]	Bliss excess [9]	Bliss excess [10]	Bliss excess (HMV-II (Melanoma))	Bliss excess [11]	Bliss excess [12]	Bliss excess [13]	Bliss excess [14]	Bliss excess (NCI-H28 (Mesothelioma))	Bliss excess [15]	Bliss excess [16]	Bliss excess [17]
C=CCn1c(=O)c2cnc(Nc3ccc(N4CCN(C)CC4)cc3)nc2n1-c1cccc(C(C)(C)O)n1 [AZD1775] + C[C@@H]1COCCN1C2=NC(=NC(=C2)C3(CC3)[S@](=N)(=O)C)C4=C5C=CNC5=NC=C4 [AZD6738] (first compound max 1 µM, partner max 10 µM)	-0.0061	-0.0377	0.0309	-0.0149	0.0354	-0.0067	-0.0134	-0.0075	0.0937	0.0075	-0.0352	-0.0327	-0.0511	-0.0474	0.0406	0.0035	0.0066	-0.0454	0.0485	0.0981
Cc1cc2ncnn2cc1Nc1ncc2c(n1)n(C1CCOCC1)c(=O)n2C [AZD7648] + CCN(CCO)CCCOc1ccc2c(Nc3cc(CC(=O)Nc4cccc(F)c4)[nH]n3)ncnc2c1 [AZD2811] (first compound max 10 µM, 7x7, partner max 1 µM)	-0.0046	0.0156	0.0211	0.0273	-0.0688	-0.0193	0.009	0.012	0.0565	0.0617	0.11	-0.0368	-0.0457	-0.0081	-0.0267	0.0043	0.0016	-0.0884	0.0096	0.076
COc1cccc(OCCCN)c1-c1cc(Nc2cnc(C#N)cn2)n[nH]1 [Prexasertib] + O=C(c1cc(Cc2n[nH]c(=O)c3ccccc23)ccc1F)N1CCN(C(=O)C2CC2)CC1 [Olaparib] (first compound max 1 µM, 7x7, partner max 10 µM)	-0.0463	-0.0942	-0.0074	-0.0401	-0.074	-0.12	-0.024	-0.0415	-0.0616	-0.125	-0.0966	-0.0242	-0.046	-0.0602	-0.166	0.0101	-0.0613	0.0014	0.015	-0.0744
Cn1cnc2c(F)c(Nc3ccc(Br)cc3Cl)c(C(=O)NOCCO)cc21 [Selumetinib] + C=CCn1c(=O)c2cnc(Nc3ccc(N4CCN(C)CC4)cc3)nc2n1-c1cccc(C(C)(C)O)n1 [AZD1775] (first compound max 10 µM, partner max 1 µM)	0.0543	-0.076	-0.0094	0.0238	-0.0577	-0.0656	-0.0298	-0.0031	-0.027	-0.0531	-0.0663	-0.0494	-0.092	-0.0806	-0.0183	0.0018	-0.0376	0.0137	-0.0849	-0.0175
CC1(C)CCC(CN2CCN(c3ccc(C(=O)NS(=O)(=O)c4ccc(NCC5CCOCC5)c([N+](=O)[O-])c4)c(Oc4cnc5[nH]ccc5c4)c3)CC2)=C(c2ccc(Cl)cc2)C1 [Venetoclax] + COc1cc(Nc2ncc3c(n2)-c2ccc(Cl)cc2C(c2c(F)cccc2OC)=NC3)ccc1C(=O)O [Alisertib] (first compound max 1 µM, 7x7, partner max 10 µM)	-0.0651	-0.0251	-0.0237	0.149	-0.0167	-0.076	-0.0656	0.0127	0.0244	-0.03	0.0423	-0.0414	0.0993	-0.0222	-0.0352	-0.0104	-0.0704	0.192	-0.034	0.0319
CC(=O)c1c(C)c2cnc(Nc3ccc(N4CCNCC4)cn3)nc2n(C2CCCC2)c1=O [Palbociclib] + CC1(C)CCC(CN2CCN(c3ccc(C(=O)NS(=O)(=O)c4ccc(NCC5CCOCC5)c([N+](=O)[O-])c4)c(Oc4cnc5[nH]ccc5c4)c3)CC2)=C(c2ccc(Cl)cc2)C1 [Venetoclax] (first compound max 10 µM, 7x7, partner max 1 µM)	-0.0511	-0.008	-0.0251	0.0462	-0.0152	-0.0531	-0.0365	-0.0435	-0.0526	-0.0187	-0.0942	-0.0895	0.0073	-0.0513	-0.0216	-0.0364	-0.0169	0.0737	-0.0113	0.0055
Cc1c2c(nn1C)CSCc1cc(n(C)n1)CSc1cc(c3ccccc3c1)OCCCc1c(C(=O)O)n(C)c3c-2c(Cl)ccc13 [AZD5991] + C[C@@H]1COCCN1C2=NC(=NC(=C2)C3(CC3)[S@](=N)(=O)C)C4=C5C=CNC5=NC=C4 [AZD6738] (first compound max 1 µM, 7x7, partner max 10 µM)	0.0281	-0.0259	0.0184	0.0214	0.0268	0.0538	0.0835	0.0515	0.0197	-0.0095	-0.024	-0.0496	-0.0291	0.0121	0.0378	0.0549	0.0026	-0.0265	0.0683	0.0585
CC(=O)c1c(C)c2cnc(Nc3ccc(N4CCNCC4)cn3)nc2n(C2CCCC2)c1=O [Palbociclib] + Cn1cnc2c(F)c(Nc3ccc(Br)cc3Cl)c(C(=O)NOCCO)cc21 [Selumetinib] (first compound max 10 µM, 7x7, partner max 10 µM)	0.0141	-0.0125	0.0767	0.0109	-0.057	-0.0419	-0.0173	-0.0189	0.0141	-0.0401	-0.0478	-0.0203	-0.0362	-0.0417	-0.0814	-0.0069	-0.0508	0.079	-0.0115	0.0035
CC(=O)Nc1cccc(-n2c(=O)n(C3CC3)c(=O)c3c(Nc4ccc(I)cc4F)n(C)c(=O)c(C)c32)c1 [Trametinib] + Cc1nc(-c2cn3c(n2)-c2ccc(-c4cnn(C(C)(C)C(N)=O)c4)cc2OCC3)n(C(C)C)n1 [Taselisib] (first compound max 1 µM, 7x7, partner max 10 µM)	0.168	0.0303	0.191	-0.0203	0.0644	0.0582	0.0749	0.139	0.066	0.0277	0.0363	0.0405	0.0406	0.0896	0.0485	0.187	0.0616	0.0075	0.0758	0.0242
NC1(C(=O)N[C@@H](CCO)c2ccc(Cl)cc2)CCN(c2ncnc3[nH]ccc23)CC1 [Capivasertib] + CCN(CCO)CCCOc1ccc2c(Nc3cc(CC(=O)Nc4cccc(F)c4)[nH]n3)ncnc2c1 [AZD2811] (first compound max 10 µM, 7x7, partner max 1 µM)	-0.0104	-0.0357	0.0136	0.0616	-0.0338	-0.0301	0.0267	-0.0435	-0.015	-0.0306	0.0016	-0.0457	0.0228	-0.0113	-0.0595	-0.0366	-0.0484	-0.0195	0.0241	0.0519
CS(=O)(=O)CCNCc1ccc(-c2ccc3ncnc(Nc4ccc(OCc5cccc(F)c5)c(Cl)c4)c3c2)o1 [Lapatinib] + C[C@@H](Oc1cc(-c2cnn(C3CCNCC3)c2)cnc1N)c1c(Cl)ccc(F)c1Cl [Crizotinib] (first compound max 10 µM, 7x7, partner max 10 µM)	-0.0183	-0.0801	-0.0338	-0.0147	-0.0681	-0.0268	-0.0569	-0.0106	-0.0479	-0.0164	-0.0469	-0.11	-0.0545	-0.03	-0.0917	-0.0179	-0.0342	-0.0964	0.0198	-0.0029
Cc1c2c(nn1C)CSCc1cc(n(C)n1)CSc1cc(c3ccccc3c1)OCCCc1c(C(=O)O)n(C)c3c-2c(Cl)ccc13 [AZD5991] + CC1(C)CCC(CN2CCN(c3ccc(C(=O)NS(=O)(=O)c4ccc(NCC5CCOCC5)c([N+](=O)[O-])c4)c(Oc4cnc5[nH]ccc5c4)c3)CC2)=C(c2ccc(Cl)cc2)C1 [Venetoclax] (first compound max 1 µM, 7x7, partner max 1 µM)	-0.0393	-0.0151	-0.016	0.0307	-0.0064	-0.0153	-0.0423	-0.0215	-0.0045	-0.0301	-0.0207	-0.0257	0.162	-0.0504	-0.0376	-0.0271	-0.0812	0.0749	0.0017	0.0481
C=CCn1c(=O)c2cnc(Nc3ccc(N4CCN(C)CC4)cc3)nc2n1-c1cccc(C(C)(C)O)n1 [AZD1775] + C1CN(CCC1(C(=O)N[C@@H](CCO)C2=CC=C(C=C2)Cl)N)C3=NC=NC4=C3C=CN4 [Capivasertib] (first compound max 3 µM, partner max 3 µM)	-0.0015	-0.0622	0.0389	0.0096	-0.0606	-0.0692	-0.0042	-0.0561	-0.0158	-0.005	-0.0212	-0.0774	-0.0503	-0.0161	-0.0677	-0.0331	-0.0725	0.0101	-0.045	-0.0188
COc1nnc2ccc(N3CCC(c4ccc(OCCN5CCN(C)C(=O)[C@H]5C)cc4)CC3)nn12 [AZD5153] + C[C@@H]1COCCN1C2=NC(=NC(=C2)C3(CC3)[S@](=N)(=O)C)C4=C5C=CNC5=NC=C4 [AZD6738] (first compound max 1 µM, 7x7, partner max 10 µM)	0.041	-0.0043	0.0037	0.01	0.054	-0.0285	0.0037	-0.0165	0.0111	0.0605	-0.0445	0.0169	-0.0567	-0.0204	-0.014	0.069	0.0141	0.0169	0.0983	0.0189
